# Assay results taken from PubChem BioAssay AID1919014 (Molecular Pharmacology Branch, DTP, NCI, 2023).
# System: NCI-H1341 complex spheroids, percent test/control
# Test: Anticancer human tumor NCI-H1341 cell line growth inhibition [AhR];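 further: spheroids exposed to agents for seven days before readout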
# Settings: for IC50: curve of first compound; for viability, T/C: stronger effect = lower value
# From the text: Multicellular complex tumor spheroid response to aryl hydrocarbon receptor antagonists in combination with a variety of drugs and investigational agents in selected tumor cell lines
# The current study was undertaken to assess response to aryl hydrocarbon receptor antagonists in combination with standard-of-care drugs and investigational agents in solid tumor complex spheroid models. Complex spheroids include a stromal component modeled by human endothelial cells (HUVEC) and fibroblasts modeled by human mesenchymal stem cells (MSCs). The concentration ranges selected for each drug and investigational agent were based upon clinically achievable concentrations if the clinical Cmax of the agent was known.
# Compounds. The drugs and investigational agents: BAY 2416964 (NSC825713), GNF351 (NSC835774), CH-223191 (NSC835775), CPI-455 (NSC825282), aza-TdCyd (NSC777586), decitabine (NSC127716), belinostat (NSC758774), entinostat (NSC756642), pevonedistat (NSC761192), tazemetostat (NSC777109), talazoparib (NSC765396), olaparib (NSC753686), selinexor (NSC780203), nedisertib (M3814, NSC802822), bortezomib (NSC756655), venetoclax (NSC766270), doxorubicin (NSC123127), elimusertib (BAY189344, NSC800525), ceralasertib (AZD6738, NSC777638), TAK-243 (NSC785004), alisertib (NSC759677), etoposide (NSC141540), topotecan (NSC609699), eribulin (NSC707389), gemcitabine (NSC613327), carboplatin (NSC241240), cisplatin (NSC119875), and SN-38 (NSC673596) were obtained from the National Cancer Institute (NCI) Developmental Therapeutics Program Chemical Repository (32). The FDA-approved anticancer drug set is available from the Developmental Therapeutics Program at https://dtp.cancer.gov/organization/dscb/obtaining/available plates.htm. […] The stock solutions were prepared in dimethyl sulfoxide (DMSO, Sigma-Aldrich, St. Louis, MO, cat. D2650), except for the platinum compounds which were prepared in saline (Quality Biological, Gaithersburg, MD, cat. 114-055-101), at 800-fold the tested concentration and stored at -70 degrees C prior to their use. All drugs and investigational agents were tested over a range starting from a high concentration at or near the clinical Cmax and decreasing in half-log increments. If the clinical Cmax for an agent had not been determined, the highest concentration tested was 10 microM (Table 1).
# Cell Culture. All cells were maintained in an incubator at 37 degrees C and 5% CO2 with 95% humidity. The PDC lines were cultured according to standard operating procedures established by the NCI PDMR (https://pdmr.cancer.gov). Briefly, all PDCs were thawed and cultured in Matrigel-coated flasks prepared with a working solution of 1X Ham's F-12 nutrient mix, without supplementation (Invitrogen, Waltham, MA, cat. 11765054), 100 U/mL penicillin-streptomycin (Invitrogen, cat. 15140122), and 2.5% Matrigel (Corning Inc., Corning, NY, cat. 354248) for the first three passages. All PDCs were cultured in complete DMEM/F-12 media containing advanced DMEM/F-12 (Invitrogen, cat. 12634028), 4.9% defined fetal bovine serum, heat inactivated (HyClone Laboratories Inc., Logan, UT, cat. SH30070.03HI), 389 ng/mL hydrocortisone (Sigma-Aldrich, cat. H4001), 9.7 ng/mL human EGF recombinant protein (Invitrogen, cat. PHG0313), 23.4 microg/mL adenine (Sigma-Aldrich, cat. A2786), 97.3 U/mL penicillin-streptomycin (Invitrogen, cat. 15140122), 1.9 mM L-glutamine (Invitrogen, cat. 25030081), and 9.7 microM Y-27632 dihydrochloride (Tocris Bioscience, Bristol, United Kingdom, cat. 1254). The PDCs were cultured in complete DMEM/F12 media without 10 microM Y-27632 dihydrochloride for at least two passages prior to the screen. The established cell lines NCI-H1341 and […] were cultured in DMEM/F-12, HEPES (Invitrogen, cat. 11330032), 5% defined fetal bovine serum (HyClone Laboratories Inc., cat. SH30070.03), ITS premix universal culture supplement [insulin (5 microg/mL), transferrin (5 microg/mL), and selenious acid (5 ng/mL)] […]
# [1] = second compound 0.1 µM, first compound 0.0316 µM
# [2] = second compound 0.1 µM, first compound 0.1 µM
# [3] = second compound 0.1 µM, first compound 0.316 µM
# [4] = second compound 0.1 µM, first compound 1 µM
# [5] = second compound 0.1 µM, first compound 3.16 µM
# [6] = second compound 0.1 µM, first compound 10 µM
# [7] = second compound 0.316 µM, first compound 0.0316 µM
# [8] = second compound 0.316 µM, first compound 0.1 µM
# [9] = second compound 0.316 µM, first compound 0.316 µM
# [10] = second compound 0.316 µM, first compound 1 µM
# [11] = second compound 0.316 µM, first compound 3.16 µM
# [12] = second compound 0.316 µM, first compound 10 µM
# [13] = second compound 1 µM, first compound 0.0316 µM
# [14] = second compound 1 µM, first compound 0.1 µM
# [15] = second compound 1 µM, first compound 0.316 µM
# [16] = second compound 1 µM, first compound 1 µM
# [17] = second compound 1 µM, first compound 3.16 µM
# [18] = second compound 1 µM, first compound 10 µM
# [19] = second compound 3.16 µM, first compound 0.0316 µM
# [20] = second compound 3.16 µM, first compound 0.1 µM
# [21] = second compound 3.16 µM, first compound 0.316 µM
# [22] = second compound 3.16 µM, first compound 1 µM
# [23] = second compound 3.16 µM, first compound 3.16 µM
# [24] = second compound 3.16 µM, first compound 10 µM
# [25] = second compound 10 µM, first compound 0.0316 µM
# [26] = second compound 10 µM, first compound 0.1 µM
# [27] = second compound 10 µM, first compound 0.316 µM
# [28] = second compound 10 µM, first compound 1 µM
# [29] = second compound 10 µM, first compound 3.16 µM
# [30] = second compound 10 µM, first compound 10 µM
smiles,measurement,setting,value
CC(C)CC(NC(=O)C(Cc1ccccc1)NC(=O)c1cnccn1)B(O)O (stereo not given) + CC(CO)NC(=O)c1cc(-c2ccc(Cl)cc2)nn(-c2cnn(C)c2)c1=O,IC50,second compound 0.1 µM,4.61 nM
same,IC50,second compound 0.316 µM,4.3 nM
same,IC50,second compound 1 µM,4.31 nM
same,IC50,second compound 3.16 µM,3.55 nM
same,IC50,second compound 10 µM,3.81 nM
same,"viability, T/C","second compound 0.1 µM, first compound 0.000949 µM",89.8%
same,"viability, T/C","second compound 0.1 µM, first compound 0.003 µM",79.2%
same,"viability, T/C","second compound 0.1 µM, first compound 0.00949 µM",0.86%
same,"viability, T/C","second compound 0.1 µM, first compound 0.03 µM",0.08%
same,"viability, T/C","second compound 0.1 µM, first compound 0.0949 µM",0.36%
same,"viability, T/C","second compound 0.1 µM, first compound 0.3 µM",0.13%
same,"viability, T/C","second compound 0.316 µM, first compound 0.000949 µM",88.1%
same,"viability, T/C","second compound 0.316 µM, first compound 0.003 µM",72.6%
same,"viability, T/C","second compound 0.316 µM, first compound 0.00949 µM",0.3%
same,"viability, T/C","second compound 0.316 µM, first compound 0.03 µM",0.06%
same,"viability, T/C","second compound 0.316 µM, first compound 0.0949 µM",0.04%
same,"viability, T/C","second compound 0.316 µM, first compound 0.3 µM",0.68%
same,"viability, T/C","second compound 1 µM, first compound 0.000949 µM",70.3%
same,"viability, T/C","second compound 1 µM, first compound 0.003 µM",75%
same,"viability, T/C","second compound 1 µM, first compound 0.00949 µM",0.31%
same,"viability, T/C","second compound 1 µM, first compound 0.03 µM",0.09%
same,"viability, T/C","second compound 1 µM, first compound 0.0949 µM",1.13%
same,"viability, T/C","second compound 1 µM, first compound 0.3 µM",0.28%
same,"viability, T/C","second compound 3.16 µM, first compound 0.000949 µM",86.3%
same,"viability, T/C","second compound 3.16 µM, first compound 0.003 µM",58.4%
same,"viability, T/C","second compound 3.16 µM, first compound 0.00949 µM",0.91%
same,"viability, T/C","second compound 3.16 µM, first compound 0.03 µM",0.08%
same,"viability, T/C","second compound 3.16 µM, first compound 0.0949 µM",0.98%
same,"viability, T/C","second compound 3.16 µM, first compound 0.3 µM",0.6%
same,"viability, T/C","second compound 10 µM, first compound 0.000949 µM",83.4%
same,"viability, T/C","second compound 10 µM, first compound 0.003 µM",62.9%
same,"viability, T/C","second compound 10 µM, first compound 0.00949 µM",1.02%
same,"viability, T/C","second compound 10 µM, first compound 0.03 µM",0.15%
same,"viability, T/C","second compound 10 µM, first compound 0.0949 µM",0.12%
same,"viability, T/C","second compound 10 µM, first compound 0.3 µM",0.45%
Nc1ccccc1NC(=O)c1ccc(CNC(=O)OCc2cccnc2)cc1 + CC(CO)NC(=O)c1cc(-c2ccc(Cl)cc2)nn(-c2cnn(C)c2)c1=O,IC50,second compound 0.1 µM,144 nM
same,IC50,second compound 0.316 µM,204 nM
same,IC50,second compound 1 µM,187 nM
same,IC50,second compound 3.16 µM,133 nM
same,IC50,second compound 10 µM,52.3 nM
same,"viability, T/C",[1],66.7%
same,"viability, T/C",[2],58.1%
same,"viability, T/C",[3],34.4%
same,"viability, T/C",[4],14.8%
same,"viability, T/C",[5],6.51%
same,"viability, T/C",[6],0.25%
same,"viability, T/C",[7],74.3%
same,"viability, T/C",[8],60.1%
same,"viability, T/C",[9],45%
same,"viability, T/C",[10],15.6%
same,"viability, T/C",[11],6.91%
same,"viability, T/C",[12],0.6%
same,"viability, T/C",[13],60.9%
same,"viability, T/C",[14],64%
same,"viability, T/C",[15],40%
same,"viability, T/C",[16],16.7%
same,"viability, T/C",[17],8.93%
same,"viability, T/C",[18],0.42%
same,"viability, T/C",[19],63.4%
same,"viability, T/C",[20],57.3%
same,"viability, T/C",[21],31.3%
same,"viability, T/C",[22],12.1%
same,"viability, T/C",[23],6.39%
same,"viability, T/C",[24],0.79%
same,"viability, T/C",[25],56.6%
same,"viability, T/C",[26],41.3%
same,"viability, T/C",[27],26.4%
same,"viability, T/C",[28],12.6%
same,"viability, T/C",[29],4.04%
same,"viability, T/C",[30],0.25%
O=C(C=Cc1cccc(S(=O)(=O)Nc2ccccc2)c1)NO + CC(CO)NC(=O)c1cc(-c2ccc(Cl)cc2)nn(-c2cnn(C)c2)c1=O,IC50,second compound 0.1 µM,230 nM
same,IC50,second compound 0.316 µM,278 nM
same,IC50,second compound 1 µM,258 nM
same,IC50,second compound 3.16 µM,262 nM
same,IC50,second compound 10 µM,163 nM
same,"viability, T/C",[1],73.7%
same,"viability, T/C",[2],65.4%
same,"viability, T/C",[3],41.8%
same,"viability, T/C",[4],27.1%
same,"viability, T/C",[5],4.5%
same,"viability, T/C",[6],0.64%
same,"viability, T/C",[7],81.9%
same,"viability, T/C",[8],65.6%
same,"viability, T/C",[9],48.6%
same,"viability, T/C",[10],27.8%
same,"viability, T/C",[11],5.91%
same,"viability, T/C",[12],0.46%
same,"viability, T/C",[13],84.8%
same,"viability, T/C",[14],68.1%
same,"viability, T/C",[15],45.7%
same,"viability, T/C",[16],25.5%
same,"viability, T/C",[17],5.09%
same,"viability, T/C",[18],1.14%
same,"viability, T/C",[19],78.9%
same,"viability, T/C",[20],63.3%
same,"viability, T/C",[21],49.7%
same,"viability, T/C",[22],21.9%
same,"viability, T/C",[23],5.78%
same,"viability, T/C",[24],0.71%
same,"viability, T/C",[25],70.6%
same,"viability, T/C",[26],52.7%
same,"viability, T/C",[27],44.5%
same,"viability, T/C",[28],20.3%
same,"viability, T/C",[29],5.56%
same,"viability, T/C",[30],0.44%
